Source: article PMC8700061, “Fragment-Sized and Bidentate (Immuno)Proteasome Inhibitors Derived from Cysteine and Threonine Targeting Warheads” (Cells, 2021)
Marks after values point to notes of the source that are not given here.

Key:
Assay type in all cases: biochemical
[1] = target: T1, β5 subunit of human cCP (Homo sapiens, UniProt P20618+P28074); experiment: Inhibition of β5 activity (RA, IC50), Suc-LLVY-AMC; conditions: 30 min pre-incubation, SDS
T1 construct: purchased Boston Biochem, Inc., Cambridge, MA, USA
Method: (§1) Residual activity measurements were performed at 10 μM final concentrations in the assay buffer (0.01% SDS, 50 mM Tris-HCl, 0.5 mM EDTA, pH 7.4). Stock solutions of the compounds were prepared in DMSO. To 50 μL of each compound in buffer, 25 μL of 0.8 nM human iCP or human cCP (both from Boston Biochem, Inc., Cambridge, MA, USA) were added. After incubation at 37 °C for 30 min, the reaction was started by adding of 25 μL of 100 μM relevant fluorogenic substrate: acetyl-Nle-Pro-Nle-Asp-AMC (Ac-nLPnLD-AMC, (Bachem, Bubendorf, Switzerland)) for β1, acetyl-Pro-Ala-Leu-7-amino-4-methylcoumarin (Ac-PAL-AMC, (Boston Biochem, Inc., Cambridge, MA, USA)) for β1i, t-butyloxycarbonyl-Leu-Arg-Arg-7-amino-4-methylcoumarin (Boc-LRR-AMC, (Bachem, Bubendorf, Switzerland)) for β2 and β2i, succinyl-Leu-Leu-Val-Tyr-7-amino-4-methylcoumarin (Suc-LLVY-AMC) (Bachem, Bubendorf, Switzerland) for β5 and β5i. Reaction progress was recorded on BioTek Synergy HT microplate reader by monitoring fluorescence at 460 nm (λex = 360 nm) for 90 min at 37 °C. The initial linear ranges were used to calculate velocity and determine residual activity. In the case of evaluation of β1, βi, β2, and β2i activities, the assay buffer was modified by replacing SDS with the proteasomal activator PA28α (Boston Biochem, Inc., Cambridge, MA, USA).
(§2) Final assay mixtures contained 0.2 nM human iCP or 0.2 nM human cCP in assay buffer (0.01% SDS (or PA28α in cases of β1, β1i subunits), 50 mM Tris-HCl, 0.5 mM EDTA, pH 7.4). Inhibitors were dissolved in DMSO and added to the black 96-well plates for at least eight different concentrations (the final concentration of DMSO was not more than 1%). After 30 min of incubation at 37 °C, the reaction was started by adding the substrate Suc-LLVY-AMC (for β5 and β5i) or Ac-nLPnLD-AMC (for β1) or Ac-PAL-AMC (for β1i). Fluorescence was monitored at 460 nm (λex = 360 nm) for 90 min at 37 °C. The progress of the reactions was recorded and the initial linear ranges were used to calculate the velocity. IC50 values were calculated using GraphPadPrism (GraphPad Software, San Diego, CA, USA) and are means from at least three independent determinations.

[2] = target: T2, β1i subunit of human iCP (Homo sapiens, UniProt P28065+P40306); experiment: Inhibition of β1i activity (RA, IC50), Ac-PAL-AMC; conditions: PA28α; for IC50: 30 min pre-incubation; for remaining activity at 10 µM: Table 3, read-out: β1i residual activity at 10 µM
T2 construct: purchased Boston Biochem, Inc., Cambridge, MA, USA
Method: as §1, §2

[3] = target: T3, hBChE (Homo sapiens, UniProt P06276); experiment: Cholinesterase assay (Ellman), hBChE; conditions: 30 min pre-incubation, read-out: Residual activity [%] ± SD, hBChE
T3 construct: gift of Xavier Brazzolotto, Florian Nachon and José Dias (IRBA, Brétigny-sur-Orge, France)
Method: The activity of the compounds against ChEs, namely hAChE and hBChE, was determined by the Ellman method. 5,5′-Dithiobis-2-nitrobenzoic acid (Ellman’s reagent; DTNB), butyrylthiocholine iodide, and acetylthiocholine iodides were from Sigma-Aldrich. Recombinant hAChE and hBChE were kindly provided by Xavier Brazzolotto, Florian Nachon, and José Dias (IRBA, Brétigny-sur-Orge, France). Reactions were performed in a final volume of 300 µL of 0.1 M phosphate-buffered solution, pH = 8.0, containing 370 µM DTNB, 500 μM butyrylthiocholine/acetylthiocholine iodide, and approximately 1 nM or 50–100 pM hBChE or hAChE, respectively. The reactions were started by the addition of the substrate after 30-min pre-incubation at room temperature. The final organic solvent (DMSO) content was always 1%. The formation of the yellow 5-thio-2-nitrobenzoate anion was monitored for 2 min at 412 nm, using a 96-well microplate reader (Synergy HT, BioTek Instruments, Inc., Santa Clara, CA, USA). The initial velocities in the presence (vi) and absence (vo) of the test compounds were calculated. Inhibitory potencies were expressed as residual activities (RA), according to the equation RA = (vi − b)/(vo − b), where b is the blank value.

[4] = target: T4, human caspase-1 (Homo sapiens, UniProt P29466); experiment: Caspase-1 assay, Ac-YVAD-AMC; conditions: 30 min pre-incubation, read-out: Residual activity [%] ± SD, Caspase-1
T4 construct: purchased Sigma Aldrich, St. Louis, MO, USA C5482; host or cells: E. coli
T4 sequence (P29466 120-297 limits assumed): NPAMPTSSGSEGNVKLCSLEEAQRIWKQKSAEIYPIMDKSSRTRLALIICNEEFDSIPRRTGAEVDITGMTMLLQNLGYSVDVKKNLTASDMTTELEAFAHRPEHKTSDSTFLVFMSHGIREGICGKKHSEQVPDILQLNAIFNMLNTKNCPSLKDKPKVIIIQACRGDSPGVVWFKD
T4 sequence (P29466 317-404 limits assumed): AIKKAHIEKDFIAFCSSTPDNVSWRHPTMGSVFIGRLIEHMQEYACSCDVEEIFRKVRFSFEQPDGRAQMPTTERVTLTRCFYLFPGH
Method: The inhibitory activity of the compounds against caspase-1 was investigated by fluorimetric assay using Ac-YVAD-AMC (SCP0069-5 mg, Sigma Aldrich, St. Louis, MO, USA) as a substrate. Recombinant human caspase-1 (expressed in E. coli, C5482, batch: SLBX3303, Sigma Aldrich, St. Louis, MO, USA) was diluted with 1 mL of assay buffer (50 mM HEPES pH 7.4, 100 mM NaCl, 1 mM EDTA, 10% (v/v) glycerol, 0.1% CHAPS, 1 mM DTT), divided into 50 µL aliquots and stored at −80 °C.
Briefly, compounds were incubated at a concentration of 100 µM (or 1% (v/v) DMSO as a control) with caspase-1 (1:5 dilution of caspase-1 stock solution) in assay buffer without DTT (to exclude reaction of compounds with DTT) in a 384-well microplate at room temperature for 30 min. The reaction was started by adding the substrate Ac-YVAD-AMC (final concentration: 20 µM) and monitored at λex = 360/40 and λem = 460/40 (Synergy HT, BioTek Instruments, Inc., Santa Clara, CA, USA) for 1 h. The initial linear ranges were used to calculate the velocity and determine RAs. Z-Val-Ala-DL-Asp-fluoromethylketone (N-1510, Bachem, Bubendorf, Switzerland) was used as a positive control.

T3 sequence (P06276 29-602): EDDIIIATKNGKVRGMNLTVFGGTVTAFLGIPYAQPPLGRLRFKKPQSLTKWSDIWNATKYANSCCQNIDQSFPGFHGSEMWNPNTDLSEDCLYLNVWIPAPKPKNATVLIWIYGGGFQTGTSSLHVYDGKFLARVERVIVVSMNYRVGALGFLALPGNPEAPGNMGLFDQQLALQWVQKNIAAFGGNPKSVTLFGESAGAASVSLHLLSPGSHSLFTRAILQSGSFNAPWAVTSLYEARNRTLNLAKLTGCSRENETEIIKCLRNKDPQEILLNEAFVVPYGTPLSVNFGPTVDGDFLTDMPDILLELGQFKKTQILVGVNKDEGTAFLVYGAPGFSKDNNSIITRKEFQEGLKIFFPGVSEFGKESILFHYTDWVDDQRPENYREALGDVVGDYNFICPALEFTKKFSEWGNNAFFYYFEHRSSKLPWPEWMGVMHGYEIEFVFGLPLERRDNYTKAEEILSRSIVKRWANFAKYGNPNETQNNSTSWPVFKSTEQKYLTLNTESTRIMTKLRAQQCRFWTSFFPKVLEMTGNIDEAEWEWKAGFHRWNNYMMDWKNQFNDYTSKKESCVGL

With CC(C)C[C@H](NC(=O)Cc1ccc2oc(C#N)nc2c1)B(O)O [Compound 40] the IC50 [1] was 2000 ± 700 nM, the IC50 [2] was 2.1 ± 0.1 µM and the remaining activity at 100 µM [3] was 33 ± 1%. The remaining activity at 100 µM [4] was over 50%.
Work on CC(C)C[C@H](NC(=O)CCn1c(C#N)nc2ccccc21)B1O[C@@H]2C[C@@H]3C[C@@H](C3(C)C)[C@]2(C)O1 [Compound 30] yielded an IC50 [1] of 700 ± 100 nM, an IC50 [2] of 1.2 ± 0.1 µM and a remaining activity at 100 µM [3] of over 50%. The remaining activity at 100 µM [4] was over 50%.
For N#Cc1nc2cc(O)ccc2o1 [Compound 11], the “β5 (RA [%]) at 10 µM” value [1] was 53% ^c, the remaining activity at 10 µM [2] was over 90% and the remaining activity at 100 µM [3] was over 50%. For the same compound, the remaining activity at 100 µM [4] was 0%.
In the case of CC(=O)Oc1ccc2oc(C#N)nc2c1 [Compound 15], the “β5 (RA [%]) at 10 µM” value [1] is reported as 55% ^c, the remaining activity at 10 µM [2] is reported as over 90% and the remaining activity at 100 µM [3] is reported as over 50%. The remaining activity at 100 µM [4] was 12 ± 2%.
In the case of N#Cc1nc2c(O)cccc2o1 [Compound 10], the IC50 [1] is reported as 30000 ± 12000 nM, the remaining activity at 10 µM [2] is reported as over 90% and the remaining activity at 100 µM [3] is reported as over 50%. The remaining activity at 100 µM [4] was 9 ± 3%.
Work on CC(C)C[C@H](NC(=O)CCn1c(C#N)nc2cccc(Cl)c21)B1O[C@@H]2C[C@@H]3C[C@@H](C3(C)C)[C@]2(C)O1 [Compound 38] yielded an IC50 [1] of 2000 ± 700 nM, an IC50 [2] of 1.9 µM and a remaining activity at 100 µM [3] of over 50%. The remaining activity at 100 µM [4] was over 50%.
In the case of CC(C)C[C@H](NC(=O)CCCn1c(C#N)nc2ccccc21)B(O)O [Compound 35], the IC50 [1] is reported as 16000 ± 8000 nM, the IC50 [2] is reported as 9.4 ± 1.9 µM and the remaining activity at 100 µM [3] is reported as over 50%. It also gave a remaining activity at 100 µM [4] of over 50%.
With CC(=O)Oc1cccc2oc(C#N)nc12 [Compound 14] the “β5 (RA [%]) at 10 µM” value [1] was 56% ^c, the remaining activity at 10 µM [2] was over 90% and the remaining activity at 100 µM [3] was over 50%. For the same compound, the remaining activity at 100 µM [4] was 49 ± 5%.
In the case of N#Cc1nc2cccc(O)c2o1 [Compound 13], the IC50 [1] is reported as 11000 ± 9000 nM, the remaining activity at 10 µM [2] is reported as over 90% and the remaining activity at 100 µM [3] is reported as over 50%. For the same compound, the remaining activity at 100 µM [4] was 5 ± 1%.
With COc1cccc2oc(C#N)nc12 [Compound 6] the “β5 (RA [%]) at 10 µM” value [1] was 63% ^c, the IC50 [2] was 78 µM and the remaining activity at 100 µM [3] was 36 ± 1%.
Work on CC(C)C[C@H](NC(=O)CCCn1c(C#N)nc2ccccc21)B1O[C@@H]2C[C@@H]3C[C@@H](C3(C)C)[C@]2(C)O1 [Compound 31] yielded an IC50 [1] of 13000 ± 4000 nM, an IC50 [2] of 6 ± 3.2 µM and a remaining activity at 100 µM [3] of over 50%. It also gave a remaining activity at 100 µM [4] of over 50%.
Work on C=Cc1nc(CC(=O)N[C@@H](CC(C)C)B2O[C@@H]3C[C@@H]4C[C@@H](C4(C)C)[C@]3(C)O2)cs1 [Compound 28] yielded an IC50 [1] of 8200 nM, an IC50 [2] of 2.2 ± 0.1 µM and a remaining activity at 100 µM [3] of 27 ± 3%. It also gave a remaining activity at 100 µM [4] of over 50%.
For CC(C)C[C@H](NC(=O)CCn1c(C#N)nc2ccccc21)B(O)O [Compound 34], the IC50 [1] was 1800 ± 400 nM, the IC50 [2] was 2.8 ± 0.5 µM and the remaining activity at 100 µM [3] was over 50%. It also gave a remaining activity at 100 µM [4] of over 50%.
In the case of CC(C)C[C@H](NC(=O)Cc1ccc2oc(C#N)nc2c1)B1O[C@@H]2C[C@@H]3C[C@@H](C3(C)C)[C@]2(C)O1 [Compound 39], the IC50 [1] is reported as 3600 ± 1100 nM, the IC50 [2] is reported as 1.3 µM and the remaining activity at 100 µM [3] is reported as 45 ± 1%. For the same compound, the remaining activity at 100 µM [4] was over 50%.
